Laboratory results published in article PMC11845331, “Teicoplanin pharmacokinetics in critically ill patients on extracorporeal organ support: a retrospective analysis” (Intensive Care Medicine Experimental, 2025).

What was measured:
[1] = Teicoplanin plasma trough levels (TCtrough) from therapeutic drug monitoring during ECMO support; assay type: in vivo, human
Excerpt: This single-center retrospective study included critically ill, adult (> 18 years old) patients hospitalized at the tertiary intensive care unit (ICU) of the University Hospital Zurich, Switzerland, an academic teaching hospital. The local ICU provides care for patients from all medical and surgical fields. All patients undergoing extracorporeal membrane oxygenation (ECMO) support and intravenous teicoplanin treatment were eligible for study inclusion from 1.1.2010 to 19.07.2023. Patients were included irrespective of the admitting diagnosis and independent of the ECMO configuration (veno-venous, veno-arterial or others with, e.g., multiple cannulation sites). Patients aged < 18 years were excluded. Other exclusion criteria were documented verbal or written refusal to participate in this study. Patients were also excluded if teicoplanin was not administered for any portion of the ECMO treatment period (e.g., if given only before or after the ECMO treatment period) or if no trough levels were obtained during ECMO support.
Data were collected with the use of two in-hospital electronic medical records databases, the KISIM (Cistec AG, Zurich, Switzerland) and the Patient Data Management System (PDMS) MetaVision (iMDsoft, Dusseldorf, Germany). Collected data included baseline demographic data (including age, gender and body mass index), comorbidities (including cardiovascular conditions, pulmonary diseases, renal insufficiency) and immunosuppression (including patients with prior organ transplantation), ICU admitting diagnoses, and the indication for teicoplanin treatment (empiric vs. targeted). Moreover, ICU treatment modalities and scores (e.g., organ support and scores such as the Sequential Organ Failure Assessment Score SOFA and the Simplified Acute Physiology Score SAPS II) and patient outcomes (including ICU length of stay and survival) were gathered. Teicoplanin trough levels and dosages over time were obtained from the medical records (see below).
In our hospital, intravenous teicoplanin is normally administered for empiric or targeted coverage of Gram-positive microorganisms. The standard loading dose is 400 mg infused at 0 h, 12 h and 24 h. Thereafter, 400 mg are administered every 24 h. Measurement of teicoplanin trough levels (TCtrough) is recommended prior to the fifth dose and this also applies to dose adjustments. In case of renal impairment, TCtrough levels are recommended to be measured prior to the second dose, in order to detect potential overdosing early. If the estimated glomerular filtration rate (eGFR) is subnormal, teicoplanin starting dosage is adjusted (eGFR 40–60 ml/min: 200 mg/24 h, eGFR < 40 ml/min: 100 mg/24 h).
In case the patient is undergoing continuous renal replacement therapy, 200–400 mg teicoplanin every 24 h are recommended. In general, TCtrough of 10–30 mg/l are targeted. TCtrough < 10 mg/l are considered insufficient, whereas TCtrough > 30 mg/l are considered toxic. In case TCtrough are not within the target ranges, dose adaptations can be prescribed by the clinicians in charge. In case a measured TCtrough is toxic (i.e., > 30 mg/l), no more teicoplanin is administered, however TCtrough are measured on a daily basis. […] After increasing the dose, subsequent teicoplanin levels are again measured prior to the fifth dose or prior to the second dose in case of renal impairment, respectively. […]

[2] = cited from earlier work
Excerpt: Recently, more attention has been drawn to antimicrobial serum levels and dosing in patients receiving ECMO treatment. While marked concentration variability during ECMO treatment has been observed for many common antimicrobials used in the ICU including meropenem, cefepime, ceftriaxone, piperacillin or vancomycin [14], data for teicoplanin are scarce so far.

[3] = Adverse reactions to teicoplanin in critically ill patients on ECMO; assay type: in vivo, human; details: all 23 included patients on ECMO, i.v. teicoplanin
Excerpt: The primary outcome of this study was the proportion of patients with insufficient or toxic TCtrough during ECMO support. Secondary outcomes included the observed TCtrough and teicoplanin dosages over time during ECMO support and dependent on the presence of continuous renal replacement therapy (CRRT), as well as the occurrence of side effects (such as hemotoxicity, hepatotoxicity or skin changes) leading to discontinuation of teicoplanin treatment.

[4] = human, in vivo; cited from earlier work
Procedure: Chen et al. focused on the effect of applying high loading doses in 11 patients receiving veno-arterial ECMO treatment. In their study, four loading doses greater than 10 mg/kg were applied within the first 72 h. Before the application of the maintenance dose, the authors reported adequate therapeutic TCtrough for severe infections in more than 90% of patients. In our study, the loading dose of 400 mg was markedly lower, which presumably might have contributed to our observed low TCtrough in a significant proportion of patients particularly during the first days of ECMO su ...

Teicoplanin
TCtrough mean difference, ECMO alone vs ECMO and CRRT ([1]; 95% CI 6–13, p < 0.0001): 9 mg/L
Influence of ECMO circuit configuration (veno-venous vs. veno-arterial) on TCtrough over time ([1]; Fig. 3): did not have a significant influence
TCtrough in patients with ECMO and CRRT ([1]; critically ill adult ICU patients, i.v. teicoplanin, plasma trough level, ECMO plus continuous renal replacement therapy, median [IQR 5–16]): 9 mg/L
TCtrough in patients with ECMO treatment alone ([1]; critically ill adult ICU patients, i.v. teicoplanin, plasma trough level, ECMO without CRRT, median [IQR 12–24 mg/l]): 18 mg/L
TCtrough mean difference in relation to oxygenator changes (pre vs. post) ([1]; five cases with available data, 95% CI –12 to 15, p = 0.8108): 1.5 mg/L
Loss of teicoplanin within the ECMO circuit ([2]; ex vivo blood-primed ECMO circuits): significant loss of teicoplanin
Lowering of central volume of distribution with ECMO treatment ([2]; population pharmacokinetic model, 10 adult ECMO patients): 34%
Drug reactions or other adverse reactions to teicoplanin [3]: no drug reactions or other adverse reactions to teicoplanin were observed
Proportion of patients with adequate therapeutic TCtrough for severe infections before the maintenance dose [4]: more than 90%
